This is an account of results in patent US20100166727A1, “S-Adenosylmethionine And Methylthioadensosine In Chemoprevention And Treatment Of Colon Polyps And Cancer” (UNIVERSITY OF SOUTHERN CALIFORNIA, priority 2007, published 2010).

Molecules are shown by their SMILES.

In assay [1] the test system is ornithine decarboxylase (ODC). Kind of assay: ODC expression by real-time PCR in HT-29 cells. Type of assay: cell-based, human. Particulars: 6 hrs.
A further assay relates to HT-29 cells. Kind of assay: Polyamine levels in HT-29 cells. It is filed as cell-based, human. Conditions: 6 hrs. The protocol: (§1) HT-29 and RKO cells were obtained from the Cell Culture Core of the USC Liver Disease Research Center and grown according to instructions provided by the American Type Culture Collection (ATCC, Rockville, Md.). Prior to treatment with growth factors, SAMe or MTA, medium was changed to 0.1% FBS overnight.
Cellular SAMe and MTA levels were measured (51) and polyamine levels were determined (52).

The next assay concerns c-FLIP. The assay is described as follows: c-FLIP expression and caspase 8 activation in RKO cells. Type of assay: cell-based, human. Particulars: 6 hrs, with concomitant caspase 8 activation. How it is done: FIG. 27. […] RKO cells were treated with SAMe (0.25-5 mM) or MTA (0.25-2 mM) for 6 hrs and c-FLIP isoform mRNA levels were measured using real-time PCR (A) and protein levels of c-FLIP and caspase 8 by Western blots (B).

For another assay, the system named is human MAT2A promoter. The assay is described as follows: Luciferase activity driven by the human MAT2A promoter in HT-29 cells. Type of assay: cell-based. Conditions: SAMe 5 mM or MTA 1 mM, 6 hrs. How it is done: The human MAT2A promoter construct[…] and GSS promoter construct −1686/−46-LUC were previously described (33, 34, 50), and subcloned in the sense orientation upstream of the luciferase coding sequence of the pGL-3 enhancer vector (Promega). Both promoter constructs contain maximal promoter activity.
To study the effect of mitogens on human MAT2A promoter activity in HT-29 cells, HT-29 cells (5×10^5 cells in 2 ml serum-free medium) were transiently transfected with 2 μg MAT2A promoter firefly luciferase gene construct or promoterless pGL3-enhancer vector (as negative control) using the Superfect Transfection Reagent (Qiagen, Valencia, Calif.) (34). To control for transfection efficiency, cells were co-transfected with the Renilla phRL-TK vector (Promega, Madison, Wis.). […] The luciferase activity driven by the MAT2A promoter construct was normalized to Renilla luciferase activity. Each experiment was done with triplicate samples.

In a further assay the test system is MAT2A. The assay is described as follows: MAT2A mRNA levels by real-time PCR in HT-29 cells. Type of assay: cell-based, human. Particulars: for MAT2A expression: 6 hr treatment, HT-29 cells. How it is done: as §1
RNA interference (RNAi) experiments were performed using Lipofectamine RNAiMax (Invitrogen) according to the manufacturer's instructions. Small interfering RNA (siRNA) oligonucleotides for MAT2A and scrambled siRNA were synthesized by the USC Norris Comprehensive Cancer Center Microchemical Core Laboratory, and annealed to form duplexes. Stealth RNAi for MAT2A and Stealth RNAi negative control duplexes were synthesized by Invitrogen (Carlsbad, Calif.). The following siRNA sequences were used: si-MAT2A #1, 5′-[…]-3′ (sense) and 5′-[…]-3′ (antisense); si-control with scrambled sequence (negative control siRNA having no perfect matches to known human genes), 5′-[…]dTdT-3′ (sense) and 5% […]dTdT-3′ (antisense); stealth RNAi-MAT2A #5, 5′-[…]-3′ (sense) and 5′-[…]-3′ (antisense). […]
Total RNA was isolated by the EZgeno total RNA isolation kit (Genemega, San Giego, Calif.), and subjected to reverse transcription (RT) by using M-MLV Reverse transcriptase (Invitrogen). 2 μl of RT product was subjected to quantitative real-time PCR analysis. The primers and TaqMan probes for MAT2A, MAT2β and Universal PCR Master Mix were purchased from ABI (Foster City, Calif.). Hypoxanthine phosphoribosyl-transferase 1 (HPRT1) and ubiquitin C (UBC) were used as housekeeping genes (48). The thermal profile consisted of 1 cycle at 95° C. for 15 minutes followed by 40 cycles at 95° C. for 15 seconds and at 60° C. for 1 minute. The expression of MAT2A and MAT2β was checked by normalizing the Ct of MAT2A and MAT2β to that of the control housekeeping gene (HPRT1 or UBC) (49). The delta Ct obtained was used to find the relative expression of MAT genes according to the formula: Relative expression=2·^ΔCt, where ΔCt=ΔCt of MAT genes in colon cancer or treated cells—ΔCt of MAT genes in normal colon or control cells.

Another assay relates to RKO cells. Kind of assay: Apoptosis in RKO cells (HOECHST staining, Annexin V). Type of assay: cell-based, human. Particulars: by 24 hrs, RKO cells. The protocol:
Apoptosis was assessed by HOECHST staining (34). Briefly, RKO cells were grown on coverslips and treated with RNAi#1 for 24 hrs and cells were fixed with paraformaldehyde and stained with 8 μg/ml HOECHST 33258 dye for 30 min. Cells with bright, fragmented, condensed nuclei were identified as apoptotic cells using the Nikon Eclipse TE300 fluorescent microscope. At least 5 random fields (at ×300) were counted.
In these experiments the total treatment duration was limited to 16 hrs to avoid the apoptotic effect. […] Apoptosis was measured by Hoechst staining or Annexin V and propidium iodide staining on flow cytometry.

On to `C[S+](CC[C@H](N)C(=O)O)C[C@H]1O[C@@H](n2cnc3c(N)ncnc32)[C@H](O)[C@@H]1O` (stereo partly drawn) [SAMe, S-adenosylmethionine], for which the ODC expression in assay [1] (SAMe 2 mM) is 1.1 ± 0.07 fold of control; in assay [1] (SAMe 5 mM) it was 0.8 ± 0.04 fold of control. The Putrescine came to 0.06 ± 0.01 nmol/mg protein in the assay on HT-29 cells (SAMe 2 mM) and 0.01 ± 0.01 nmol/mg protein in the assay on HT-29 cells (SAMe 5 mM). The Spermidine with HT-29 cells (SAMe 2 mM) is 2.37 ± 0.02 nmol/mg protein; in the assay with HT-29 cells (SAMe 5 mM), 1.90 ± 0.18 nmol/mg protein. Moreover, the figures for the Spermine with HT-29 cells (SAMe 2 mM) and in the assay on HT-29 cells (SAMe 5 mM) were 12.39 ± 2.86 nmol/mg protein and 13.21 ± 2.58 nmol/mg protein, respectively. Moreover, in the assay with c-FLIP, the c-FLIP expression result was “lowered c-FLIP expression”. Moreover, the “human MAT2A promoter activity” value in the assay with human MAT2A promoter is recorded as “lower the promoter activity”. Further, the MAT2A expression in the assay with MAT2A (0.5 mM SAMe) is 81 % baseline; in the assay on MAT2A (1 mM SAMe), 65 % baseline; with MAT2A (2 mM SAMe), 55 % baseline; with MAT2A (5 mM SAMe) it was 38 % of baseline. Besides, the “reduction of baseline expression of MAT2A” value in the assay on MAT2A (SAMe 5 mM or MTA 1 mM, 6 hrs, HT29 cells) came to 60%. In addition, the “IGF-1-mediated induction of MAT2A on co-treatment” value in the assay with MAT2A (co-treatment 3 hrs) is “blunted the IGF-1-mediated induction of MAT2A”. The “leptin- or EGF-induced MAT2A expression on co-treatment” value in the assay on MAT2A (co-treatment with leptin (6 hrs) or EGF (3 hrs)) is listed as “prevented the ability of these growth factors to induce MAT2A”. Moreover, the apoptosis result in the assay with RKO cells was “induced apoptosis in a dose-dependent manner”.
